Patent US9212139B2, “Aryl substituted indoles and their use as blockers of sodium channels” (Purdue Pharma, L.P., priority 2010, dated 2015)

What was measured:
[1] = tested on: spinal nerve ligation (SNL; Chung model of neuropathic pain); assay: Mechanical hyperalgesia (paw withdrawal threshold) in the Chung spinal nerve ligation model; assay type: in vivo; details: rats, intraperitoneal (i.p.) administration, from 1 to 3 hours
Procedure: Test Animals: Each experiment uses rats weighing between 200-260 g at the start of the experiment. The rats are group-housed and have free access to food and water at all times, except prior to oral administration of a test compound when food is removed for 16 hours before dosing. A control group acts as a comparison to rats treated with a compound of Formulae I-XX. The control group is administered the carrier as used for the test compound. The volume of carrier administered to the control group is the same as the volume of carrier and test compound administered to the test group.
In the Chung model, the spinal nerve ligation model of neuropathic pain was used to produce mechanical hyperalgesia, thermal hyperalgesia and tactile allodynia in rats. […] The animals were assessed for response to noxious mechanical stimuli by determining PWT, as described below, prior to surgery (baseline), then immediately prior to and 1, 3, and 5 hours after being administered a compound of Formulae I-XX for the left rear paw of the animal. The animals can also be assessed for response to noxious thermal stimuli or for tactile allodynia, as described below. […]
Mechanical Hyperalgesia: Sensitivity to noxious mechanical stimuli can be measured in animals using the paw pressure test to assess mechanical hyperalgesia. […] PWT is determined once for each rat at each time point. […]

human Nav1.7 = human Nav1.7 (Homo sapiens (Human), UniProt Q15858); assay: FLIPR or FLIPR TETRA sodium dye assay with KCl and test article pre-incubation; assay type: cell-based; details: sodium dye assay with KCl; recombinant human Nav1.7 in HEK293 cells; value ± SEM
Sequence of human Nav1.7 (Q15858 other isoform, or with tags, fused parts or gaps): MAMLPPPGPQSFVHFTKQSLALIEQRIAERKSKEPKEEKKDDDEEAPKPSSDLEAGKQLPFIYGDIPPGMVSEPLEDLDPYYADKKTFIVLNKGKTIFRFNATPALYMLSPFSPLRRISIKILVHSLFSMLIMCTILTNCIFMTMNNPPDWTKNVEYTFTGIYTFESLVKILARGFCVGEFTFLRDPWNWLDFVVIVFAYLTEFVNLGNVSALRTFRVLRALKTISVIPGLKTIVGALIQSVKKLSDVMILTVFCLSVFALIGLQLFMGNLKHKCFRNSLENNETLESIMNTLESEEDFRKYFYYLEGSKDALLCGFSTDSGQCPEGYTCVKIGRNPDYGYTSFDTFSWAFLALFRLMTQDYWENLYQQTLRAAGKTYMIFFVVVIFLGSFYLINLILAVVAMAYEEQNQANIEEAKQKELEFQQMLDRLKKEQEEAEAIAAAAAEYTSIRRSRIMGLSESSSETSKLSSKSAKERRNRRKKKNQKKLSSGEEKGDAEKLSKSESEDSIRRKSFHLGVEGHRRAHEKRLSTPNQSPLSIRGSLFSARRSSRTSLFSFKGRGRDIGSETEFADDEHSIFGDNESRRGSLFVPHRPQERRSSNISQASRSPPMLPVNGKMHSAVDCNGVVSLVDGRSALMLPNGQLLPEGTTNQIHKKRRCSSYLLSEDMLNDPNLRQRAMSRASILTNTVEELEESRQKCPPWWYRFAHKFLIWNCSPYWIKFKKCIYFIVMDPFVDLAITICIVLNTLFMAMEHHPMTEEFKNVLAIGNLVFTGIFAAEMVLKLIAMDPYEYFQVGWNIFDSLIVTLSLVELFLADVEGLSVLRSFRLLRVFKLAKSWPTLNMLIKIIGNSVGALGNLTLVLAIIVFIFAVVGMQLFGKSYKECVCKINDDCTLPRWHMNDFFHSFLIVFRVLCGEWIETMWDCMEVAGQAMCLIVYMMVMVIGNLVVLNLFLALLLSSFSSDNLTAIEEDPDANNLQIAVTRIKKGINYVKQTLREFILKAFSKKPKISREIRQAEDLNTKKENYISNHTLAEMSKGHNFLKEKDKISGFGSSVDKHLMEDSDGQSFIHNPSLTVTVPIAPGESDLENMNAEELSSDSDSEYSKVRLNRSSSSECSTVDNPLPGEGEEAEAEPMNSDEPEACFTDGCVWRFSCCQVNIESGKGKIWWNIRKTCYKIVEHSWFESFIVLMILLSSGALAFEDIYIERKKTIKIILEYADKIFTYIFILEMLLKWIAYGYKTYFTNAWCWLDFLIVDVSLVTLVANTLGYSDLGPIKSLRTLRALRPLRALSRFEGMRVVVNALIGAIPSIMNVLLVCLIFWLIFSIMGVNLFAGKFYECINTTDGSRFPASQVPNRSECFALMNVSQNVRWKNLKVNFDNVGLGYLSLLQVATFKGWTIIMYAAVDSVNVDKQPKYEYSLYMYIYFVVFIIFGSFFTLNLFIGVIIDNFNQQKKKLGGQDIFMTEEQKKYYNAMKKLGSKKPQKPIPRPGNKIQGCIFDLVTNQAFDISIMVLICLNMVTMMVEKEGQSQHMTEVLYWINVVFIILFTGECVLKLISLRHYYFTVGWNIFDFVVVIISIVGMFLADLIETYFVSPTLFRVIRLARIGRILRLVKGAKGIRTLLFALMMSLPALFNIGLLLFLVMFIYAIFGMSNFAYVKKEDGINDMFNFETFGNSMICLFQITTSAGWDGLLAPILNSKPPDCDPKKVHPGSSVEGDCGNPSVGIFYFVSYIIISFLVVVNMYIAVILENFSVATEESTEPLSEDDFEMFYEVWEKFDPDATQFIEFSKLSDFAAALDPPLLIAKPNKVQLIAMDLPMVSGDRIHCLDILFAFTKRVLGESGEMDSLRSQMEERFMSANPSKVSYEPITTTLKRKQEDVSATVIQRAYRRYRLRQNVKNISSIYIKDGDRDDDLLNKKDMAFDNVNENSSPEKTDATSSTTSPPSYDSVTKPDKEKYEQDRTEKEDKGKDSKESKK
From the text: For dominant selection of the Nav1.7-expressing clones, the expression plasmid co-expressed the neomycin resistance gene. […] Recombinant beta and gamma subunits were not introduced into this cell line. Additional cell lines expressing recombinant Nav1.7 cloned from other species can also be used, alone or in combination with various beta subunits, gamma subunits or chaperones.
Cell maintenance: Unless otherwise noted, cell culture reagents were purchased from Mediatech of Herndon, Va. The recombinant Nav1.7/HEK293 cells were routinely cultured in growth medium consisting of Dulbecco's […] containing 10% fetal bovine serum (FBS, Hyclone, Thermo Fisher Scientific, Logan, Utah), 100 U/mL penicillin, […], 2-4 mM L-glutamine, and […]. For natural, non-recombinant cell lines, the selective antibiotic was omitted, and additional media formulations can be applied as needed.
The intensity of this emission, but not the wavelength range, is increased when the dye is exposed to Na^+ ions, which it can bind with partial selectivity. Cells expressing Nav1.7 or other sodium channels were loaded with the CoroNa™ Green dye immediately in advance of the fluorescence assay, and then, after agonist stimulation, the mobilization of Na^+ ions was detected as the Na^+ ions flowed from the extracellular fluid into the cytoplasm through the activated sodium channel pores. The dye was stored in the dark as a lyophilized powder, and then an aliquot was dissolved immediately before the cell loading procedure, according to the instructions of the manufacturer to a stock concentration of 10 mM in DMSO. It was then diluted in the assay buffer to a 4× concentrated working solution, so that the final concentration of dye in the cell loading buffer was 5 μM.
These scorpion toxins inhibit the fast inactivation of their cognate target channels. Stock solutions of the agonists were prepared to 40 mM in DMSO (veratridine) and 1 mg/mL in dH2O (scorpion venom), and then diluted to make a 4× or 2× stock (depending on the particular assay) in assay buffer, the final concentration being 100 μM (veratridine) and 10 μg/mL (scorpion venom). Both of the agonists were purchased from Sigma Aldrich, St. Louis, Mo.
Test Compounds: Test compounds were dissolved in DMSO to yield 10 mM stock solutions. […] If a particular test article appeared to be especially potent, then the concentration curve was adjusted, e.g., to 10-fold lower concentrations, in order to perform the dose-response in a more relevant concentration range. Compound dilutions were added during the dye-loading and pre-stimulation step, and then again during the fluorescence assay, early in the kinetic read.
Data Analysis: The data were analyzed according to methods known to those skilled in the art or using the GraphPad® Prism 4.0 Program (available from GraphPad Software, San Diego, Calif.) to determine the IC50 value for the test article. At least one standard reference compound was evaluated during each experiment.
FLIPR® or FLIPR^TETRA® sodium dye assay with KCl and test article pre-incubation: Cells were prepared by plating the recombinant HEK293 cells or other host cells expressing either recombinant or non-recombinant, native, Nav1.7 alpha subunit, alone or in combination with various beta and gamma subunits at a density of ˜40,000 cells/well into a 96-well black, clear-bottom, PDL-coated plate. The assay can be adapted to 384-well or 1,536-well format, if desired, using proportionately less cells and media. […] For counter-screens of other voltage-gated sodium channels, the procedure was very similar, though optimal densities of cells, media and subsequent assay components can be fine-tuned for the particular cell line or isoform.

hNav1.7 = hNav1.7 (Homo sapiens (Human), UniProt Q15858); assay: Electrophysiology (EP) assay, whole-cell patch clamp; assay type: cell-based; details: whole-cell patch clamp, hNav1.7 expressing HEK-293 cells; read-out: EP Nav1.7 Ki
Sequence of hNav1.7 (Q15858 other isoform, or with tags, fused parts or gaps): as above
Procedure: Cells: The hNav1.7 expressing HEK-293 cells were plated on 35 mm culture dishes pre-coated with poly-D-lysine in standard DMEM culture media (Mediatech, Inc., Herndon, Va.) and incubated in a 5% CO2 incubator at 37° C. Cultured cells were used approximately 12-48 hours after plating.
Electrophysiology: On the day of experimentation, the 35 mm dish was placed on the stage of an inverted microscope equipped with a perfusion system that continuously perfuses the culture dish with fresh recording media. A gravity driven superfusion system was used to apply test solutions directly to the cell under evaluation. This system consists of an array of glass pipette glass connected to a motorized horizontal translator. The outlet of the shooter was positioned approximately 100 μm from the cell of interest.
Gigaseals were formed and the whole-cell configuration was established in voltage clamp mode, and membrane currents generated by hNav1.7 were recorded in gap-free mode. […] Signals were sampled at 50 kHz and low pass filtered at 3 kHz.
The voltage clamp protocol to examine hNav1.7 currents was as follows. First, the standard current-voltage relationship was tested by pulsing the cell from the holding voltage (Vh) of −120 mV by a series of 5 msec long square-shaped test pulses incrementing in +10 mV steps over the membrane voltage range of −90 mV to +60 mV at the pace of stimulation of 0.5 Hz. This procedure determines the voltage that elicits the maximal current (Vmax). […] This procedure determines the voltage of full inactivation (Vfull). Third, the cell was repeatedly stimulated with the following protocol, first in the absence of the test compound then in its presence. The protocol consisted of depolarizing the cell from the holding potential of −120 mV to the Vfull value for 4.5 seconds then repolarizing the cell to the holding potential for 10 ms before applying the test pulse to the Vmax for 5 ms. The amount of inhibition produced by the test compound was determined by comparing the current amplitude elicited by the test pulse in the absence and presence of the compound.
Vehicle solution used to establish base line was also contacting 0.3% DMSO.
Data analysis: Data was analyzed off-line using Clampfit software (pClamp, v. 8; Axon Instruments) and graphed using GraphPad Prizm (v. 4.0) software.

SMILES | reversal of mechanical hyperalgesia [1] | IC50 (human Nav1.7) | Ki (hNav1.7)
N#Cc1cc(Oc2ccc(-n3cc(C[C@H](N)CO)c4ccccc43)cc2)ccc1C(F)(F)F [Compound 47, (S)-5-{4-[3-(2-Amino-3-hydroxypropyl)-1H-indol-1-yl]phenoxy}-2-(trifluoromethyl)benzonitrile] | 10%-25% | 0.213 ± 0.052 µM | 160 nM
N#Cc1cc(Oc2ccc(-n3cc(C(O)C(N)=O)c4ccccc43)cc2)ccc1C(F)(F)F (stereo not drawn) [Compound 60, 2-(1-(4-(3-Cyano-4-(trifluoromethyl)phenoxy)phenyl)-1H-indol-3-yl)-2-hydroxyacetamide] | 10%-25% | 0.224 ± 0.038 µM | 400 nM
